From article PMC12472947 (Pharmaceuticals, 2025)
Marks after values point to notes of the source that are not given here.

Legend:
hH3R = biological target: T1, hH3R (Homo sapiens, UniProt Q9Y5N1); test: H3R radioligand displacement assay ([3H]-N-α-methylhistamine); assay type: binding; conditions: 95% confidence interval in brackets; HEK-293 membranes
T1 construct: expressed in transfected cells; host or cells: HEK-293
Procedure: HEK-293 cells (human embryonic kidney cells) stably expressing hH3R were washed and harvested in PBS buffer (phosphate-buffered saline). […] The cell membrane homogenate was centrifuged (20,000× g, 20 min, 4 °C), and the resulting pellet was resuspended in binding buffer and stored at −80 °C until use.
Prior to experiments, the cell membranes were thawed, homogenized by sonication at 4 °C, and kept in ice-cold binding buffer. Crude membrane extracts (20 μg/well in a final volume of 0.2 mL binding buffer) were incubated with [^3H]-N-α-methylhistamine (2 nM; 78.3 Ci/mmol) and varying concentrations of test compounds. Assays were performed in duplicate, with compound concentrations ranging from 0.01 nM to 100 μM. Incubations proceeded for 90 min at room temperature under continuous agitation.
Bound radioligand was separated from free radioligand by filtration through GF/B filters pretreated with 0.3% (w/v) polyethyleneimine, using a cell harvester. Radioactivity was quantified by liquid scintillation counting. Data were analyzed using GraphPad Prism v8 (San Diego, CA, USA) software, employing non-linear regression analysis.

hMAO-B = biological target: T2, hMAO-B (Homo sapiens, UniProt P27338); test: biochemical; assay type: biochemical
T2 construct: purchased Sigma-Aldrich, Gillingham, UK
T2 sequence (P27338 1-520): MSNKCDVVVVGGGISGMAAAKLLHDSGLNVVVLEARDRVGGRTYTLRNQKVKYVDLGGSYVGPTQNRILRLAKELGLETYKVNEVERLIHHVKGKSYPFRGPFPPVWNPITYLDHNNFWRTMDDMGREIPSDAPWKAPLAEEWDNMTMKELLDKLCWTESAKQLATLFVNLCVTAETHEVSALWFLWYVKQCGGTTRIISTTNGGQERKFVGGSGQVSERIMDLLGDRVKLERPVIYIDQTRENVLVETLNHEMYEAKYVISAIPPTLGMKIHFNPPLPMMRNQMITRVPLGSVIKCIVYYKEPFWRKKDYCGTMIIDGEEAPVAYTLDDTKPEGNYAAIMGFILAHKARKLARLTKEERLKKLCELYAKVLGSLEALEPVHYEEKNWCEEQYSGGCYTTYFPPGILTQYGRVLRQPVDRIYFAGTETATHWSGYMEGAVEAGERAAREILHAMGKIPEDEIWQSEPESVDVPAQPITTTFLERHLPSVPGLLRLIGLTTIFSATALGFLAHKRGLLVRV
Procedure: (§1) The activity of human recombinant membrane-bound monoamine oxidase isoforms A and B (MAO-A/B) (Sigma-Aldrich, Gillingham, UK) in 50 mM potassium phosphate buffer (pH 7.5) was determined by measuring hydrogen peroxide production coupled to the fluorescent dye Amplex Red (Sigma-Aldrich, UK) at a final concentration of 50 μM, in the presence of horseradish peroxidase (HRP, 2.5 U/mL). This coupling reaction generates the fluorescent product resorufin, which was quantified at 30 °C using a fluorescence plate reader.
(§2) Reactions were initiated by adding the substrate and dye after a 30 min preincubation of the inhibitor with the enzyme. Data were analyzed using a three-parameter equation in GraphPad Prism 7.0 (San Diego, USA). Each reported value represents the mean of at least two independent determinations.

[1] = tested on: H2O2-damaged SH-SY5Y cells; test: In vitro neuroprotection against H2O2 in SH-SY5Y (MTT); conditions: for viability at 12.5 µM: Homo sapiens, SH-SY5Y, read-out: Cell viability (% of control)
Procedure: For the neuroprotection assay, the cells previously cultured (Section 3.4.1) were seeded in 96-well plates at a density of 5 × 10^4 cells/well in a volume of 200 µL. The plates were incubated at 37 °C containing 5% CO2 for 24 h. After 24 h, the medium was replaced with the test solutions. […] Finally, the test solutions were removed, the cells were washed with PBS pH 7.4, and the H2O2 solution was added and maintained in contact with the cells for 24 h. After 24 h exposure, the neuroprotective capacity was assessed through cell viability using the MTT assay protocol previously described in Section 3.4.3 [52, 53].

hMAO-A = biological target: T3, hMAO-A (Homo sapiens, UniProt P21397); test: MAO-A inhibition, fluorometric Amplex Red assay; assay type: biochemical
T3 construct: purchased Sigma-Aldrich, Gillingham, UK
T3 sequence (P21397 1-527): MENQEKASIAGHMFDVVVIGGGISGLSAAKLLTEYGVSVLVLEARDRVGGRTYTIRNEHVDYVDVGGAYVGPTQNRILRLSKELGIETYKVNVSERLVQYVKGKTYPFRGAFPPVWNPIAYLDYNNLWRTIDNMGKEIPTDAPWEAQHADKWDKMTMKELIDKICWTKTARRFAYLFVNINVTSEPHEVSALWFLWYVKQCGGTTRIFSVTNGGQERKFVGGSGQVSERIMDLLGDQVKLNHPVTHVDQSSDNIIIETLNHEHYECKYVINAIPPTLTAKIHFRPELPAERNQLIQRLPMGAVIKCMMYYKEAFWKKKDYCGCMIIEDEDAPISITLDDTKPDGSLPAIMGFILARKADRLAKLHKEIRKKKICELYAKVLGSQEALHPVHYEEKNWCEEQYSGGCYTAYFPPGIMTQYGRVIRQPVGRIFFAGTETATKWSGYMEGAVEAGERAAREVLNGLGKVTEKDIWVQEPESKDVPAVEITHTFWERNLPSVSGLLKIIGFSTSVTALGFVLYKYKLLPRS
Procedure: as §1, with “reader. […].” for “reader.”
as §2

[2] = biological target: electric eel AChE [EeAChE] (Electrophorus electricus, UniProt O42275); test: biochemical; assay type: biochemical; conditions: for IC50: Electric eel AChE, Ellman method, read-out: IC50(nM) ± SD AChE (EeAChE); for SI: Selectivity Index = EqBChE IC50/EeAChE IC50
Procedure: The anticholinesterase activity was determined using Ellman’s method, adapted as follows. […] Subsequently, 60 μL of 5,5′-dithiobis(2-nitrobenzoic acid) (DTNB, 1.1 mM) and 30 μL of enzyme solution (electric eel AChE [EeAChE], human AChE [hAChE], or equine serum BChE [EqBChE], 0.20 U/mL) containing 1 mg/mL bovine serum albumin (BSA) were added. […] Enzyme activity was calculated as the percentage relative to untreated controls, subtracting the blank reference. IC50 values were derived via non-linear regression analysis of dose–response curves (Figure S4) using GraphPad Prism v7.0.

Sequence of electric eel AChE [EeAChE] (O42275 24-633): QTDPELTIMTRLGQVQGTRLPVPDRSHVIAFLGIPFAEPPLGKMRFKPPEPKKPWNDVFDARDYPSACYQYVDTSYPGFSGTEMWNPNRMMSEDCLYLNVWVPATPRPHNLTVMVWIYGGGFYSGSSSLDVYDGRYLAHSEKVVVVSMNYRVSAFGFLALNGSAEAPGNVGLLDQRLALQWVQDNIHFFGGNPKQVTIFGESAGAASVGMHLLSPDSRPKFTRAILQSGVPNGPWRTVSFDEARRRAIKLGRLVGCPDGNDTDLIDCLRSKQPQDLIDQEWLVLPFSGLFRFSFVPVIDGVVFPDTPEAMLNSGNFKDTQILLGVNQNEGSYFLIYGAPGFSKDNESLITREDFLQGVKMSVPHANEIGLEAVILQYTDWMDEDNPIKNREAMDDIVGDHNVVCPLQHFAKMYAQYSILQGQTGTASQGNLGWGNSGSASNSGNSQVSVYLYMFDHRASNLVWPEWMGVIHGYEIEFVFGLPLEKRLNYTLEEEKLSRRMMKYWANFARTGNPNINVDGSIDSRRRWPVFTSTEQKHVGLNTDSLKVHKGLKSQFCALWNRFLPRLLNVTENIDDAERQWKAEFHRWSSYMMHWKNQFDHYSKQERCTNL
T1 sequence (Q9Y5N1 whole entry): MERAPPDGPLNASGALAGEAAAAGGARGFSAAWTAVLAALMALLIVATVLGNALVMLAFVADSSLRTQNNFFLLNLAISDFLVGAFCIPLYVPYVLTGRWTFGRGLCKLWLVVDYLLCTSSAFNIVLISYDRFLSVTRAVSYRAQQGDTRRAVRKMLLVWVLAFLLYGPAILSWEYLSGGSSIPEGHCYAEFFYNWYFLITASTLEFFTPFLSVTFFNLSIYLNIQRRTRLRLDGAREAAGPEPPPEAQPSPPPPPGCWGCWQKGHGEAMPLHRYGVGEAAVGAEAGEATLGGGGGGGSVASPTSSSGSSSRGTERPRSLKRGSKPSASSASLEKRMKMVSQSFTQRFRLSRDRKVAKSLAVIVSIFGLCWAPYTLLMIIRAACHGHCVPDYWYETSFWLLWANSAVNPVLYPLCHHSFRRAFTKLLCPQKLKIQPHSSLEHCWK

Structure (SMILES)	Ki (hH3R) [nM]	inhibition at 1 µM (hMAO-B; test concentration of 1 µM, read-out: Percentage of MAO-B inhibition ± SEM) [%]	neuroprotection against H2O2-induced oxidative stress ([1]; 12.5 µM)	viability at 12.5 µM [1] [%]	inhibition at 1 µM (hMAO-A; test concentration of 1 µM, read-out: Percentage of MAO-A inhibition ± SEM) [%]	IC50 [2] [nM]	SI [2]	IC50 (hMAO-B) [nM]	MAO-B/A selectivity ratio (hMAO-B)	IC50 (hMAO-A; 95% confidence interval in brackets) [nM]
O=c1oc2cc(OCCN3CCCCC3)ccc2cc1-c1cn(Cc2ccccc2)nn1 [Compound 1h, 3-(1-Benzyl-1H-1,2,3-triazol-4-yl)-7-(2-(piperidin-1-yl)ethoxy)-2H-chromen-2-one]	558	11.3 ± 1.9	neuroprotective effects	88	5.2 ± 1.9	6.03 ± 0.62	632			
O=c1oc2cc(OCCCN3CCCCC3)ccc2cc1-c1cn(Cc2ccccc2)nn1 [Compound 1q, 3-(1-Benzyl-1H-1,2,3-triazol-4-yl)-7-(3-(piperidin-1-yl)propoxy)-2H-chromen-2-one]	151			68		1950 ± 86	~2 ^e,f	1690	greater than 18 fold	31100
